What was measured:
[1] = target: T1, MKNK1 (Homo sapiens, UniProt Q9BUB5, T385D); assay: MKNK1 kinase assay (MKNK1 TR-FRET assay); format: biochemical; details: 10 μM ATP, 15 min preincubation
T1 construct: GST (N); purchased Carna Biosciences 02-145; host or cells: insect cells (baculovirus expression system)

[2] = target: T1, MKNK1; assay: MKNK1 kinase high ATP assay (TR-FRET-based); format: biochemical; details: 2 mM ATP, 15 min preincubation
Procedure, shortened: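 GST-tagged full-length human MKNK1 (aa 1-424, T344D) from insect cells, preincubated with compound 15 min at 22 °C. Reaction 30 min at 22 °C with 2 mM ATP and 0.06 μM biotinylated peptide in HEPES pH 7.5, Mg2+, DTT. Phosphopeptide detected by TR-FRET (665/622 ratio) with anti-pS6 (pSer236) antibody; normalised to no-inhibitor and no-enzyme controls.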

T1 sequence (Q9BUB5 1-424 isoform Q9BUB5-2 T344D): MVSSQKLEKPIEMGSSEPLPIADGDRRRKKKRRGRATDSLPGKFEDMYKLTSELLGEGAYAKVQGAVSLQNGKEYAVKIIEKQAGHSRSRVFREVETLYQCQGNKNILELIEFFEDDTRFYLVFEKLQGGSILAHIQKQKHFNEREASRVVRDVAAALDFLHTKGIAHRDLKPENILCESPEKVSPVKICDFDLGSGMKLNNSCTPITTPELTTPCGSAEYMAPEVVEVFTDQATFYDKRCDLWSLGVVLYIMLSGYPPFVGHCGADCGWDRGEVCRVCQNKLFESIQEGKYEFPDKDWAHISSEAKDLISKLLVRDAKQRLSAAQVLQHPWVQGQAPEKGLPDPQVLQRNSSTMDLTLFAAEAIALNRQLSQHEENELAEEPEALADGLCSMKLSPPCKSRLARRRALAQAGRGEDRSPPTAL

Row | Compound | IC50 ([1]; Table 1c) | IC50 ([2]; Table 2c) | IC50 ([1]; Table 1a) | IC50 ([2]; Table 2a) | other results
1 | C[C@@H]1CN(c2nccc3oc(-c4cnc5ccc(OCCCS(C)(=O)=O)nn45)cc23)C[C@H](C)O1 [III-53, 3-{4-[(2R,6S)-2,6-Dimethylmorpholin-4-yl]furo[3,2-c]pyridin-2-yl}-6-[3-(methyl-sulfonyl)propoxy]imidazo[1,2-b]pyridazine] | 8.7 nM | 26.7 nM | – | – | –
2 | C[C@H]1CN(c2nccc3oc(-c4cnc5ccc(OC[C@H]6CCC(=O)N6)nn45)cc23)CCO1 [III-123, (5R)-5-{[(3-{4-[(2S)-2-methylmorpholin-4-yl]furo[3,2-c]pyridin-2-yl}imidazo[1,2-b]pyridazin-6-yl)oxy]methyl}pyrrolidin-2-one] | 2.2 nM | 0.5 nM | – | – | –
3 | COC[C@H]1CCCN1c1cccc2oc(-c3cnc4ccc(OC[C@@H](C)N)nn34)cc12 [II-26, (2R)-1-[(3-{4-[(2R)-2-(Methoxymethyl)pyrrolidin-1-yl]-1-benzofuran-2-yl}imidazo[1,2-b]pyridazin-6-yl)oxy]propan-2-amine] | – | – | – | – | IC50 ([1]; Table 1b): 0.8 nM; IC50 ([2]; Table 2b): 0.8 nM
4 | COc1ccc2oc(-c3cnc4ccc(OCCN5CCNC5=O)nn34)cc2c1 [Example I-33, 1-(2-{[3-(5-Methoxy-1-benzofuran-2-yl)imidazo[1,2-b]pyridazin-6-yl]oxy}ethyl)imidazolidin-2-one] | – | – | 15.5 nM | 40.5 nM | –
5 | O=C1CCCC(COc2ccc3ncc(-c4cc5ccccc5o4)n3n2)N1 (stereo not shown) [Example I-8, 6-({[3-(1-Benzofuran-2-yl)imidazo[1,2-b]pyridazin-6-yl]oxy}methyl)piperidin-2-one] | – | – | 5.2 nM | 9.3 nM | –
6 | C[C@H](N)COc1ccc2ncc(-c3cc4c(N5CCN(C(C)(C)C)CC5)nccc4o3)n2n1 [III-116, (2S)-1-({3-[4-(4-tert-butylpiperazin-1-yl)furo[3,2-c]pyridin-2-yl]imidazo[1,2-b]pyridazin-6-yl}oxy)propan-2-amine] | 27 nM | 114 nM | – | – | –
7 | Cc1nocc1C(=O)N1CCC[C@H]1CCOc1ccc2ncc(-c3cc4ccccc4o3)n2n1 [Example I-52, [(2S)-2-(2-{[3-(1-Benzofuran-2-yl)imidazo[1,2-b]-pyridazin-6-yl]oxy}ethyl)pyrrolidin-1-yl](3-methyl-1,2-oxazol-4-yl)methanone] | – | – | 1.7 nM | 3.4 nM | –
8 | CC(=O)N1CCC[C@H]1CCOc1ccc2ncc(-c3cc4cnccc4o3)n2n1 [IV-1, 1-[(2S)-2-(2-{[3-(Furo[3,2-c]pyridin-2-yl)imidazo[1,2-b]pyridazin-6-yl]oxy}ethyl)pyrrolidin-1-yl]ethanone] | – | – | – | – | IC50 ([1]; Table 1d): 5 nM; IC50 ([2]; Table 2d): 12 nM
9 | C[C@H](N)COc1ccc2ncc(-c3cc4c(N5CCN(C)CC5)nccc4o3)n2n1 [III-8, (2S)-1-({3-[4-(4-Methylpiperazin-1-yl)furo[3,2-c]pyridin-2-yl]imidazo[1,2-b]pyridazin-6-yl}oxy)propan-2-amine] | 7.2 nM | 16.3 nM | – | – | –
10 | CCN(CCOC)c1nccc2oc(-c3cnc4ccc(OC[C@@H]5COCCN5)nn34)cc12 [III-35, N-Ethyl-N-(2-methoxyethyl)-2-{6-[(3S)-morpholin-3-ylmethoxy]imidazo[1,2-b]pyridazin-3-yl}furo[3,2-c]pyridin-4-amine] | 1 nM | 0.9 nM | – | – | –
11 | CC1(C)CN(c2nccc3oc(-c4cnc5ccc(OC[C@H]6CCC(=O)N6)nn45)cc23)CCO1 [III-142, (5R)-5-[({3-[4-(2,2-dimethylmorpholin-4-yl)furo[3,2-c]pyridin-2-yl]imidazo[1,2-b]pyridazin-6-yl}oxy)methyl]pyrrolidin-2-one] | 1.6 nM | 0.5 nM | – | – | –
12 | C[C@H](N)COc1ccc2ncc(-c3cc4c(N5CCOC[C@H]5C)cccc4o3)n2n1 [II-57, (2S)-1-[(3-{4-[(3R)-3-methylmorpholin-4-yl]-1-benzofuran-2-yl}imidazo[1,2-b]pyridazin-6-yl)oxy]propan-2-amine] | – | – | – | – | IC50 ([1]; Table 1b): 53.7 nM; IC50 ([2]; Table 2b): 75.1 nM
13 | CCN(CCOC)c1nccc2oc(-c3cnc4ccc(OC[C@H](C)N)nn34)cc12 [III-18, 2-(6-{[(2S)-2-Aminopropyl]oxy}imidazo[1,2-b]pyridazin-3-yl)-N-ethyl-N-(2-methoxyethyl)furo[3,2-c]pyridin-4-amine] | 0.7 nM | 0.9 nM | – | – | –
14 | Cn1ccc(C(=O)NCCOc2ccc3ncc(-c4cc5ccccc5o4)n3n2)n1 [Example I-79, N-(2-{[3-(1-Benzofuran-2-yl)imidazo[1,2-b]-pyridazin-6-yl]oxy}ethyl)-1-methyl-1H-pyrazole-3-carboxamide] | – | – | 10.1 nM | 25.5 nM | –
15 | CC(C)(C)N1CCN(c2nccc3oc(-c4cnc5ccc(OCCCS(C)(=O)=O)nn45)cc23)CC1 [III-48, 3-[4-(4-tert-Butylpiperazin-1-yl)furo[3,2-c]pyridin-2-yl]-6-[3-(methylsulfonyl)-propoxy]imidazo[1,2-b]pyridazine] | 11.9 nM | 32.1 nM | – | – | –
16 | COC[C@H]1CCCN1c1cccc2oc(-c3cnc4ccc(OC[C@H]5CNCC(=O)N5)nn34)cc12 [II-48, (6R)-6-{[(3-{4-[(2R)-2-(methoxymethyl)pyrrolidin-1-yl]-1-benzofuran-2-yl}imidazo[1,2-b]pyridazin-6-yl)oxy]methyl}piperazin-2-one] | – | – | – | – | IC50 ([1]; Table 1b): 7 nM; IC50 ([2]; Table 2b): 3.9 nM
17 | COc1ccc2oc(-c3cnc4ccc(OC[C@@H]5CCC(=O)N5)nn34)cc2c1 [Example I-13, (5S)-5-({[3-(5-methoxy-1-benzofuran-2-yl)imidazo[1,2-b]pyridazin-6-yl]oxy}methyl)pyrrolidin-2-one] | – | – | 3.7 nM | 10.7 nM | –
18 | C[C@H](N)COc1ccc2ncc(-c3cc4c(N5CCO[C@H](C)C5)nccc4o3)n2n1 [III-117, (2S)-1-[(3-{4-[(2R)-2-methylmorpholin-4-yl]furo[3,2-c]pyridin-2-yl}imidazo[1,2-b]pyridazin-6-yl)oxy]propan-2-amine] | 21.5 nM | 39.9 nM | – | – | –
19 | CC(C)(C)[Si](C)(C)OC[C@H]1CCCN1c1nccc2oc(-c3cnc4ccc(OC[C@H]5CCC(=O)N5)nn34)cc12 [III-66, (5R)-5-{[(3-{4-[(2R)-2-({[tert-Butyl(dimethyl)silyl]oxy}methyl)pyrrolidin-1-yl]furo[3,2-c]pyridin-2-yl}imidazo[1,2-b]pyridazin-6-yl)oxy]methyl}pyrrolidin-2-one] | 4.2 nM | 8.5 nM | – | – | –
20 | C[C@@H]1CN(c2nccc3oc(-c4cnc5ccc(OC[C@@H](C)N)nn45)cc23)CCO1 [III-121, (2R)-1-[(3-{4-[(2R)-2-methylmorpholin-4-yl]furo[3,2-c]pyridin-2-yl}imidazo[1,2-b]pyridazin-6-yl)oxy]propan-2-amine] | 11.6 nM | 12.8 nM | – | – | –
21 | c1cc(N2CCOCC2)c2cc(-c3cnc4ccc(O[C@@H]5CCNC5)nn34)oc2c1 [II-13, 3-[4-(Morpholin-4-yl)-1-benzofuran-2-yl]-6-[(3R)-pyrrolidin-3-yloxy]imidazo[1,2-b]pyridazine] | – | – | – | – | IC50 ([1]; Table 1b): 39 nM; IC50 ([2]; Table 2b): 58 nM
22 | CN(CCCO)c1nccc2oc(-c3cnc4ccc(OCCCS(C)(=O)=O)nn34)cc12 [III-54, 3-[Methyl(2-{6-[3-(methylsulfonyl)propoxy]imidazo[1,2-b]pyridazin-3-yl}furo[3,2-c]pyridin-4-yl)amino]propan-1-ol] | 2.8 nM | 6.2 nM | – | – | –
23 | C[C@@H]1CN(c2cccc3oc(-c4cnc5ccc(OCC(F)(F)F)nn45)cc23)CCN1 [II-59, 3-{4-[(3R)-3-methylpiperazin-1-yl]-1-benzofuran-2-yl}-6-(2,2,2-trifluoroethoxy)im-idazo[1,2-b]pyridazine] | – | – | – | – | IC50 ([1]; Table 1b): 6.4 nM; IC50 ([2]; Table 2b): 2 nM
24 | CN(CCCN1CCCC1)c1nccc2oc(-c3cnc4ccc(O[C@H]5C[C@H](N)C5)nn34)cc12 [III-97, 2-{6-[(trans-3-Aminocyclobutyl)oxy]imidazo[1,2-b]pyridazin-3-yl}-N-methyl-N-[3-(pyrrolidin-1-yl)propyl]furo[3,2-c]pyridin-4-amine] | 5.6 nM | 21 nM | – | – | –
25 | O=C(NCCOc1ccc2ncc(-c3cc4ccccc4o3)n2n1)c1ccccn1 [Example I-70, N-(2-{[3-(1-Benzofuran-2-yl)imidazo[1,2-b]-pyridazin-6-yl]oxy}ethyl)pyridine-2-carboxamide] | – | – | 15.1 nM | 45.8 nM | –
26 | C[C@H](N)COc1ccc2ncc(-c3cc4c(N5CCN(C(=O)OC(C)(C)C)CC5)nccc4o3)n2n1 [III-15, tert-Butyl 4-[2-(6-{[(2S)-2-aminopropyl]oxy}imidazo[1,2-b]pyridazin-3-yl)furo[3,2-c]pyridin-4-yl]piperazine-1-carboxylate] | 31 nM | 78.4 nM | – | – | –
27 | CC(C)(C)CC(=O)N1CCOC(COc2ccc3ncc(-c4cc5ccccc5o4)n3n2)C1 (stereo not shown) [Example I-14, 1-[2-({[3-(1-Benzofuran-2-yl)imidazo[1,2-b]pyridazin-6-yl]oxy}methyl)-morpholin-4-yl]-3,3-dimethylbutan-1-one] | – | – | 5.1 nM | 10.9 nM | –
28 | O=C(c1ccsc1)N1CCC[C@H]1CCOc1ccc2ncc(-c3cc4ccccc4o3)n2n1 [Example I-57, [(2S)-2-(2-{[3-(1-Benzofuran-2-yl)imidazo[1,2-b]-pyridazin-6-yl]oxy}ethyl)pyrrolidin-1-yl](thiophen-3-yl)methanone] | – | – | 1.9 nM | 3.9 nM | –
29 | O=C1NCCC1Oc1ccc2ncc(-c3cc4ccccc4o3)n2n1 (stereo not shown) [Example I-38, 3-{[3-(1-Benzofuran-2-yl)imidazo[1,2-b]pyridazin-6-yl]oxy}pyrrolidin-2-one] | – | – | 64 nM | 71.7 nM | –

— patent US20160287589A1, “SUBSTITUTED-IMIDAZOPYRIDAZINES” (BAYER PHARMA AKTIENGESELLSCHAFT, priority 2013, published 2016)
